Measured values taken from ChEMBL document CHEMBL4610027, “Identification of Mycobacterium tuberculosis CtpF as a target for designing new antituberculous compounds” (Bioorg Med Chem, 2020).
≈ marks a conversion by molar mass, not a printed value. Calls of active or inactive are those of the source. The rule behind the calls is not given here.

Legend:
[1] = system: Mycobacterium tuberculosis; test: Antimycobacterial activity against Mycobacterium tuberculosis H37Rv assessed as inhibition of bacterial growth at MIC incubated for 21 days by colony formation assay relative to control; format: functional
[2] = system: Mycobacterium tuberculosis; test: Potency index, ratio of CPA MIC to test compound MIC for Mycobacterium tuberculosis H37Rv; format: functional
[3] = system: Mycobacterium tuberculosis; test: Antimycobacterial activity against Mycobacterium tuberculosis H37Rv incubated for 6 days by resazurin dye-based colorimetric method; format: functional; details: 144 h
[4] = Octanol/water partition coefficient, log P of the compound; format: physicochemical
[5] = Cytotoxicity against mouse MHS cells assessed as cell death at 100 ug/ml incubated for 48 hrs by crystal violet staining based spectrophotometric analysis relative to control
[6] = (§1) Inhibition of calcium stimulated Mycobacterium tuberculosis H37Ra CtpF ATPase activity using Na2ATP as substrate preincubated for 30 mins followed by substrate addition and measured after 30 mins by colorimetric analysis
[7] = Hemolytic activity against human erythrocytes assessed as hemolysis at 100 ug/ml incubated for 2 hrs by spectrophotometric analysis; format: ADME, cell-based, Erythrocyte; details: read-out: Activity
[8] = system: Mycobacterium tuberculosis H37Ra; test: Inhibition of calcium stimulated Mycobacterium tuberculosis H37Ra CtpF ATPase activity at 100 uM using Na2ATP as substrate preincubated for 30 mins followed by substrate addition and measured after 30 mins by colorimetric analysis relative to control
Listeria monocytogenes = test: Inhibition of Listeria monocytogenes Ca2+ ATPase
[9] = Inhibition of Bacillus cereus Ca2+ ATPase
[10] = system: Mycobacterium tuberculosis H37Ra; test: as §1

| SMILES | inhibition (INH) [1] | Ratio [2] | MIC [3] | logP [4] | Activity [5] | IC50 [6] | hemolysis at 2 h, 100 ug/ml [7] | inhibition [8] | inhibition [1] | INH (Listeria monocytogenes) | IC50 [9] | inhibition [10] |
| --- | --- | --- | --- | --- | --- | --- | --- | --- | --- | --- | --- | --- |
| COCC(=O)Nc1c(C(=O)OC)n(CCC(C)C)c2ncc(N[C@@H](C)C(C)(C)O)cc12 | 60.7% | 0.5 | 50 µg/mL (≈ 115 µM) | 3.32 | 19.8% | 8 µM | 0.6% |  |  |  |  |  |
| CCCCC(=O)Nc1cccc(C(=O)NCCCNc2cccnc2)c1 | 52.9% |  | 100 µg/mL (≈ 282 µM) | 2.91 | 21.4% | 4.2 µM | 1.2% | 46.9% |  |  |  |  |
| O=C(CCCC[C@@H]1SC[C@@H]2NC(=O)N[C@@H]21)NCc1cn(-c2ccccc2)nc1-c1ccccc1 | 29.5% |  | 100 µg/mL (≈ 210 µM) | 3.34 | 30% | 4.1 µM | 2.4% | 48.2% |  |  |  |  |
| CCC[C@H](C)NC(=O)CSc1nc2cc(S(=O)(=O)Nc3ccccc3OC)ccc2o1 |  |  | > 200 µg/mL | 4.08 | 39.5% | 35.9 µM | 1% |  | inactive |  |  |  |
| CC(=O)C1=C(O)[C@@H]2[C@H]3c4c[nH]c5cccc(c45)C[C@H]3C(C)(C)N2C1=O [CYCLOPIAZONIC ACID] | 29.9% |  | 100 µg/mL (≈ 297 µM) | 2.21 | 50.8% | 7.2 µM | 6.6% |  |  | 918 µM | 4 µM | Dose-dependent effect |
| C[C@@H](OC(=O)CCCNC1=NS(=O)(=O)c2ccccc21)C(=O)c1c[nH]c2ccccc12 | 37.3% |  | 100 µg/mL (≈ 228 µM) | 1.82 | 31.6% | 11.8 µM | 2.1% |  |  |  |  |  |
| NS(=O)(=O)[C@H]1CC=C(CNC(=O)CCCc2c[nH]c3ccccc23)S1 | 64% | 0.5 | 50 µg/mL (≈ 132 µM) | 1.68 | 12.9% | 4.4 µM | 2% | 44.9% |  |  |  |  |
